# Measurements: publication PMC4467156, “A new chemical inhibitor of angiogenesis and tumorigenesis that targets the VEGF signaling pathway upstream of Ras” (Oncotarget, 2015)
# Tests used:
# Raf phosphorylation = assay: Western blot, Raf phosphorylation in HUVEC; assay type: cell-based, human; details: 10 ng/mL VEGF-A 15 min, 25 μM COB223
# Method: (§1) Figure 11 Effect of COB223 on mitogenic or oncogenic activation of the Ras /MEK/ERK signaling pathway (A) Serum-starved HUVEC cells were incubated for 15 min in the presence of 10 ng/mL VEGF-A and in the absence or the presence of 25 μM COB223. The phosphorylations of PLCγ on tyrosine 783, of Raf on serine 338 or on serine 259 and of ERK1/2 were then analyzed by Western blot analysis of the cell lysates as described in Material and Methods. Western blots for total PLCγ, Raf and ERK1/2 were used as loading controls. (B) MCF10A cells overexpressing an oncogenic version of Ras (MCF10A-RasG12V) were treated for the indicated periods of time by 25 μM COB223. Total ERK1/2 and phospho-ERK1/2 were then visualized by Western blotting of the cell extracts. Non-treated regular MCF10A cells were analyzed as a control (first lane). (C) CCL-39 fibroblasts expressing a constitutively active Raf in an estrogen-responsive manner were stimulated for 3 h with estradiol and treated for 15 or 30 min with 25 μM COB223. Total ERK1/2 and phospho-ERK1/2 were then visualized by Western blotting of the cell extracts. Non-treated cells were analyzed as a control (left lanes).
# (§2) Serum-starved HUVEC cells were incubated for 15 min in the presence of either 10 ng/mL VEGF-A or 20 ng/mL FGF-2 and in the absence or the presence of indicated concentration of COB223. COB223 was incubated 15 min prior to stimulation. […]
# PLCγ phosphorylation = assay: Western blot, PLCγ phosphorylation in HUVEC; assay type: cell-based, human; details: 10 ng/mL VEGF-A 15 min, 25 μM COB223
# Method: as §1, §2
# VEGFR2 phosphorylation = assay: Western blot, VEGFR2 autophosphorylation in HUVEC; assay type: cell-based, human; details: 10 ng/mL VEGF-A 15 min, 25 μM COB223
# Method: Figure 9 Effect of COB223 on growth factor-induced VEGF-R2, MEK and ERK phosphorylations (A) Serum-starved HUVEC cells were incubated for 15 min in the presence of either 10 ng/mL VEGF-A or 20 ng/mL FGF-2 and in the absence or the presence of 25 μM COB223. The phosphorylations of VEGFR2 on tyrosine 1175 or tyrosine 1214, of MEK and ERK1/2 were then analyzed by Western blot analysis of the cell lysates as described in Material and Methods. Western blots for total VEGFR2, MEK and ERK1/2 were used as loading controls. The blots shown in Figure 9A were obtained in one representative experiment. (B) The hybridization signals observed in 5 similar but independent experiments were quantitated and the ratios between phospho-VEGFR2(Y1175) or (Y1214) and VEGFR2 signals were normalized to the value observed in the absence of COB223. (C) The hybridization signals observed in 5 similar but independent experiments were quantitated and the ratios between phospho-ERK1/2 and ERK1/2 and between phospho-MEK and MEK were normalized to the values observed in the absence of COB223. Additional experiments performed with 10% fetal calf serum (FCS) as a mitogen were included in this analysis. * : p < 0.05; ** : p < 0.01
# Serum-starved HUVEC cells were incubated for 15 min in the presence of either 10 ng/mL VEGF-A or 20 ng/mL FGF-2 and in the absence or the presence of indicated concentration of COB223. […]
# FGFR1 = FGFR1 (Homo sapiens, UniProt P11362); assay: In vitro kinase assay FGFR1; assay type: biochemical; details: concentrations up to 50 μM
# Chain of FGFR1 (P11362 22-822, species assumed): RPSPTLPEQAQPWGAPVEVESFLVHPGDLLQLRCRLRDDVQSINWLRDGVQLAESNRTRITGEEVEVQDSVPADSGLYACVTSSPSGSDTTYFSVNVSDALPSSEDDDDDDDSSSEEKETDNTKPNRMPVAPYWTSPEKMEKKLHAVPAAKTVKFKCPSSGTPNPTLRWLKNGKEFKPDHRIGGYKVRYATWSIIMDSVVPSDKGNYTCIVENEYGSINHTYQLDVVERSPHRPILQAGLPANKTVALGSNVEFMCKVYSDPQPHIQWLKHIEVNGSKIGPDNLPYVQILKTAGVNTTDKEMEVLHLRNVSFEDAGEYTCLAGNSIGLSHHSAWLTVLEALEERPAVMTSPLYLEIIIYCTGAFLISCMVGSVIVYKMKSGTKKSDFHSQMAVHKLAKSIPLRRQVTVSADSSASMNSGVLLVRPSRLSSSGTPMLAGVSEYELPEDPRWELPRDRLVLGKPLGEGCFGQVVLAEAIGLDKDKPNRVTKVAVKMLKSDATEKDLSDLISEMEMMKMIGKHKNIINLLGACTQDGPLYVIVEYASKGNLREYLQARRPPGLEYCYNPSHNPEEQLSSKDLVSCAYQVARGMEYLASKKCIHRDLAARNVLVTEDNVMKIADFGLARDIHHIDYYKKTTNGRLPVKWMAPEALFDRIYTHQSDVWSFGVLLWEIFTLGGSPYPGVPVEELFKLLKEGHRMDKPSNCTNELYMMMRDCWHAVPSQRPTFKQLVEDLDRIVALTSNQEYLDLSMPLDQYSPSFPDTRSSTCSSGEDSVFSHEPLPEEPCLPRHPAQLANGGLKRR
# Method: (§3) We first wondered whether COB223 required to be internalized to exert its biological effect. For this, we synthesized a covalent complex between BSA and COB223 and purified it. […] In vitro kinase assays were performed with a panel of purified protein-kinases involved in mitogenic signaling, including VEGFR2, FGFR1, FGFR2, PDGFRß, Met, Raf, MEK1, ERK1, ERK2, PKCα, PKCβI, PKCβII, PKCζ as indicated in Table 2. […] We then analyzed the effect of COB223 on VEGF-induced phosphorylations of VEGFR2, MEK and ERK1/2 (Figure 9). […] (Figure 9A, 9B). […] It was also specific of the p42/p44 MAP kinase pathway as activation of p38 MAP kinase phosphorylation in HUVEC cells by VEGF or serum was unaffected by COB223 (data not shown). The activation of src phosphorylation by VEGF in HUVECs was also unaffected by COB223 (data not shown).
# VEGFR2 (KDR) = VEGFR2 (KDR) (Homo sapiens, UniProt P35968); assay: In vitro kinase assay VEGFR2; assay type: biochemical; details: concentrations up to 50 μM
# Chain of VEGFR2 (KDR) (P35968 20-1356, species assumed): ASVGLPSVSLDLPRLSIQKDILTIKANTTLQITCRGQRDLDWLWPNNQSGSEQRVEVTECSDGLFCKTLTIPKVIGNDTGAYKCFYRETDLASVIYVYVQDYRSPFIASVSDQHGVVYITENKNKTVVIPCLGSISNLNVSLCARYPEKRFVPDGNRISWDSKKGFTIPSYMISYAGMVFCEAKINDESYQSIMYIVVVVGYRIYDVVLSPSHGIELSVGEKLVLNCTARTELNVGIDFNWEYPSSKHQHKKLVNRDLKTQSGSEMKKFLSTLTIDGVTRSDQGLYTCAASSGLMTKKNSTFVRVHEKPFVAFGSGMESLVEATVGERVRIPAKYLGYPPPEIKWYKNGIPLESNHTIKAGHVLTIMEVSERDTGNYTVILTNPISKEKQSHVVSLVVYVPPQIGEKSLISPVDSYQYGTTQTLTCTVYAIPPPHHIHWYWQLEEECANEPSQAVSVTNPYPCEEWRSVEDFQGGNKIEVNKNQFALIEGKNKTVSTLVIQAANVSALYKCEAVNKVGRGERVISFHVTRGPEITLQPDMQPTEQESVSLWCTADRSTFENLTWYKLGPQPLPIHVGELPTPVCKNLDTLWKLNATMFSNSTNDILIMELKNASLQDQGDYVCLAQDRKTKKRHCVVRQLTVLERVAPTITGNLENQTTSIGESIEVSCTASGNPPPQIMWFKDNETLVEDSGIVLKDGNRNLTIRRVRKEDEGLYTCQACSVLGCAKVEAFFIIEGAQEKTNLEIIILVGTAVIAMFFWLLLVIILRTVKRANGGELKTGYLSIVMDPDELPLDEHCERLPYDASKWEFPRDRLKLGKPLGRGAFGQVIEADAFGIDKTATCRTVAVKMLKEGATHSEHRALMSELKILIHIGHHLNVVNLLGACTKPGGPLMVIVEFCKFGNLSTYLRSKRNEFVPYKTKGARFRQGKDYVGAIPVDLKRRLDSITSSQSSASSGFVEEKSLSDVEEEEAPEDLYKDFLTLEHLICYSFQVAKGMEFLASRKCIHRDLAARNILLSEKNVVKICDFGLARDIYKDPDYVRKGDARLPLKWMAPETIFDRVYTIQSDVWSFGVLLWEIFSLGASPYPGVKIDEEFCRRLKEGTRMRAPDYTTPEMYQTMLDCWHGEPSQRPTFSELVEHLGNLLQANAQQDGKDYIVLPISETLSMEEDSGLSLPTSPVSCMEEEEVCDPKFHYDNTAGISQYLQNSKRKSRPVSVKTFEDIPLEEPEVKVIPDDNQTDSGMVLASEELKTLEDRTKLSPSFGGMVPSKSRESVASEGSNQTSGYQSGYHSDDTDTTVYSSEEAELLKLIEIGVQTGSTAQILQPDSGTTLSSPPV
# Method: as §3
# HMVECd cells = assay: 3H-thymidine incorporation, HMVECd; assay type: cell-based, human; details: 24 h
# Method: (§4) Cells were treated with molecules in complete medium. After 22 h, 1 μCi per well H^3 thymidine was added for 2 hours. Cells are then fixed by 10% trichloroacetic acid and harvested with 0.2N NaOH, 1% SDS. Radioactivity was measured in a beta counter.
# HUVEC cells [1] = assay: 3H-thymidine incorporation, HUVEC; assay type: cell-based, human; details: HUVEC, 24 h
# Method: as §4
# PKC ζ = PKC ζ (Homo sapiens, UniProt Q05513); assay: In vitro kinase assay PKC ζ; assay type: biochemical; details: concentrations up to 50 μM
# Chain of PKC ζ (Q05513 whole entry): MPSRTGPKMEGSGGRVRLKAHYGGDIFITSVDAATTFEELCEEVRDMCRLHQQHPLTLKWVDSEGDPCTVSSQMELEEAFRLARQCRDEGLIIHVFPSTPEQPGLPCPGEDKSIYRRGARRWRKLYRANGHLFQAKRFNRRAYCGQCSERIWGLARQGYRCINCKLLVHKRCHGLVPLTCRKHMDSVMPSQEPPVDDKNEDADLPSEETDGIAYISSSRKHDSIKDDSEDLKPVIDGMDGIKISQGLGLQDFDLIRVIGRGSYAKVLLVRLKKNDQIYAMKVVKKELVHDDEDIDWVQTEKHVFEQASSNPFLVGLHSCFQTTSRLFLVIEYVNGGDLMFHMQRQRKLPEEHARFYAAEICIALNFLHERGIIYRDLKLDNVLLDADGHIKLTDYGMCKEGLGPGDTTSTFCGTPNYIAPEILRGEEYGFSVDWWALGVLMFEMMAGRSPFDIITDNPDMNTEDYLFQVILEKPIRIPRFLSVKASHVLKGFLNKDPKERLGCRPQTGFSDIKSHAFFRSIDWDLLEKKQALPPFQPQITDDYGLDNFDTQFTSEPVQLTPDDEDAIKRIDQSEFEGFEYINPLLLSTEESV
# Method: as §3
# ERK1/2 phosphorylation [2] = assay: ERK1/2 phosphorylation in 3T3 fibroblasts; assay type: cell-based; details: data not shown
# ERK1 = ERK1 (Homo sapiens, UniProt P27361); assay: In vitro kinase assay ERK1; assay type: biochemical; details: concentrations up to 50 μM
# Chain of ERK1 (P27361 whole entry, species assumed): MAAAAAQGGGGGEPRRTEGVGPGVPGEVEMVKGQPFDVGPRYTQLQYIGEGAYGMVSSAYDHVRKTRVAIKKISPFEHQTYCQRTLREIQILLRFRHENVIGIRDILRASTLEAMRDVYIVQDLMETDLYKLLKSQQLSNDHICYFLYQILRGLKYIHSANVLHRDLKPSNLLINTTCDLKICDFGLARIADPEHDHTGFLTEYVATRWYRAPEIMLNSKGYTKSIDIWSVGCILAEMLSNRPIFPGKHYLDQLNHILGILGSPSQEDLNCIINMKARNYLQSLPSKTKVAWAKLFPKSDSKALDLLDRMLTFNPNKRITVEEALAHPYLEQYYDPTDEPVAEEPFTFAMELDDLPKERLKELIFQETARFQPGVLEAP
# Method: as §3
# ERK1/2 phosphorylation [3] = assay: ERK1/2 phosphorylation in MCF-10A cells expressing oncogenic RasG12V; assay type: cell-based; details: 25 μM COB223
# Method: as §1
# HUVEC cells [4] = assay: Binding of 125I-VEGF-A121 to HUVEC cells; set-up: species or system human; details: data not shown
# PKCβII = PKCβII (Homo sapiens, UniProt P05771); assay: In vitro kinase assay PKCβII; assay type: biochemical; details: concentrations up to 50 μM
# Chain of PKCβII (P05771 1-673 isoform P05771-2): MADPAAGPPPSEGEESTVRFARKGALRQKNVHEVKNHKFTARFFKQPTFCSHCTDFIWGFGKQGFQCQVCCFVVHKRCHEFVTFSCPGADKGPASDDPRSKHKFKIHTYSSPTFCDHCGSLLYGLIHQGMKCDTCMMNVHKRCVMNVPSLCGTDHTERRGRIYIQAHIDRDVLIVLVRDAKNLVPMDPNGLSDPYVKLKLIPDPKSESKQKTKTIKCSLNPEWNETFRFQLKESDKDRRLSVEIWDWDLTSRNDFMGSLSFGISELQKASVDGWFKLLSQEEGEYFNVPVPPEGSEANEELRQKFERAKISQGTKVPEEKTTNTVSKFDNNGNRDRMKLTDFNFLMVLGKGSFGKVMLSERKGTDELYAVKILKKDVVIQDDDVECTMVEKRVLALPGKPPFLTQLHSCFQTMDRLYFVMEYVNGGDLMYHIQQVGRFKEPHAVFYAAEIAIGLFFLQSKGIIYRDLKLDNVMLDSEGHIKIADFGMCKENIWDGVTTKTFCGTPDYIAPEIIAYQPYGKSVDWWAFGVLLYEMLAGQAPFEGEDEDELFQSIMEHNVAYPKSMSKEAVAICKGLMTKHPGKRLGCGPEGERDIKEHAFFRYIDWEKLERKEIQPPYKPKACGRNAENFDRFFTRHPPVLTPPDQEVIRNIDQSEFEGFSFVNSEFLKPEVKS
# Method: as §3
# MEK1 = MEK1 (Homo sapiens, UniProt Q02750); assay: In vitro kinase assay MEK1; assay type: biochemical; details: concentrations up to 50 μM
# Chain of MEK1 (Q02750 whole entry, species assumed): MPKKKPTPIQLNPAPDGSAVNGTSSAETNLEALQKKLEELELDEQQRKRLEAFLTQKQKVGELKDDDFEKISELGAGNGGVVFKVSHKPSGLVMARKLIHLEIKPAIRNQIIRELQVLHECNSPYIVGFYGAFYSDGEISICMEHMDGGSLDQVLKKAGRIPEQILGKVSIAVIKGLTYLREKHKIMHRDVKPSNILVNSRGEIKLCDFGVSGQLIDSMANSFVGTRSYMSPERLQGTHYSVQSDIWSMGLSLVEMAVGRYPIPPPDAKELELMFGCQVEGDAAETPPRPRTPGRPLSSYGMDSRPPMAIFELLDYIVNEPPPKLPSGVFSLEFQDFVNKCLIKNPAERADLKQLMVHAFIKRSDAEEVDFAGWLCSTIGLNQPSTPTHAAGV
# Method: as §3
# ERK2 = ERK2 (Homo sapiens, UniProt P28482); assay: In vitro kinase assay ERK2; assay type: biochemical; details: concentrations up to 50 μM
# Chain of ERK2 (P28482 whole entry, species assumed): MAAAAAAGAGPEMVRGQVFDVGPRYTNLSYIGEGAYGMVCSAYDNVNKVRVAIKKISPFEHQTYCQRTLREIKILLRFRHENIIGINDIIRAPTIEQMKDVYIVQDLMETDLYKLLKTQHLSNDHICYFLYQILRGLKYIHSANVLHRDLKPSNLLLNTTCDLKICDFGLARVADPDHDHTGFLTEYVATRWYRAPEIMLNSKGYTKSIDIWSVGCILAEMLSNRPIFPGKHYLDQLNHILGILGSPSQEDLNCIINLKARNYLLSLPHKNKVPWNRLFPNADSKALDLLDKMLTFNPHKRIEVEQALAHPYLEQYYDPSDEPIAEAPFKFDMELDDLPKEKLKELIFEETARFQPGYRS
# Method: as §3
# HUVEC cells [5] = assay: Cell viability WST-1, HUVEC; assay type: cell-based, human; details: confluent HUVEC, 24 h at 37°C
# Method: Once they had reached confluency, cells were kept for 24 hours in medium supplemented with 0.5% FCS (LLC/2 and 3T3 cells) or 2.5% FCS (HUVEC and HMVEC-d cells), in the presence of COB223 at different concentrations. WST-1 assay (Roche Diagnostic, Meylan, France) was then performed according to the manufacturer's instructions.
smiles,measurement,setting,value
"CN(C)c1cccc2c(S(=O)(=O)NCCCN3CCN(CCCNC(=O)OC(C)(C)C)CC3)cccc12 [COB223, tert-Butyl 3-(4-(3-(5-(dimethylamino)naphthalene-1-sulfonamido)propyl)piperazin-1-yl) propylcarbamate]",phosphorylation of Raf on residue S338,Raf phosphorylation,inhibited
same,VEGF-induced tyrosine phosphorylation of PLCγ on residue Y783,PLCγ phosphorylation,unaffected
same,autophosphorylation of VEGFR2 on tyrosine 1175,VEGFR2 phosphorylation,did not alter
same,autophosphorylation of VEGFR2 on tyrosine 1214,VEGFR2 phosphorylation,did not alter
same,kinase inhibition,FGFR1,None of them was inhibited
same,kinase inhibition,VEGFR2 (KDR),None of them was inhibited
same,concentrations inhibiting thymidine incorporation,HMVECd cells,above 5 μM
same,concentrations inhibiting thymidine incorporation,HUVEC cells [1],above 5 μM
same,kinase inhibition,PKC ζ,None of them was inhibited
same,FGF2-induced or serum-induced phosphorylation of ERK1/2,ERK1/2 phosphorylation [2],did not affect
same,kinase inhibition,ERK1,None of them was inhibited
same,constitutive phosphorylation of ERK1/2 induced by oncogenic RasG12V,ERK1/2 phosphorylation [3],did not modify
same,binding of 125I-VEGF-A121 to HUVEC cells,HUVEC cells [4],unaffected
same,kinase inhibition,PKCβII,None of them was inhibited
same,kinase inhibition,MEK1,None of them was inhibited
same,kinase inhibition,ERK2,None of them was inhibited
same,cytotoxic concentrations,HUVEC cells [5],> 50 µM
